Results from ChEMBL document CHEMBL1137686, “Synthesis and anticonvulsant activity of new N-[(4-arylpiperazin-1-yl)-alkyl] derivatives of 3-phenyl-pyrrolidine-2,5-dione” (Eur J Med Chem, 2009).
Calls of active or inactive are those of the source. The calls are words filed in the database; no cut-off is given here.

What was measured:
Mus musculus [1] = assay: Anticonvulsant activity in ip dosed CF1 albino mouse assessed as inhibition of maximal electroshock-induced seizures after 4 hrs; assay type: functional
Mus musculus [2] = assay: Anticonvulsant activity in CF1 albino mouse assessed as inhibition of maximal electroshock-induced seizures at 300 mg/kg, ip after 0.5 hrs; assay type: functional, organism-based; parameters: dose 300 mg/kg
Mus musculus [3] = assay: Neurotoxicity in ip dosed CF1 albino mouse assessed as ability to maintain equilibrium for 1 min on […] after 4 hrs by rotarod test; assay type: toxicity, organism-based; settings: in vivo
Mus musculus [4] = assay: Neurotoxicity in ip dosed CF1 albino mouse assessed as ability to maintain equilibrium for 1 min on […] after 0.5 hrs by rotarod test; assay type: toxicity, organism-based; settings: in vivo
Mus musculus [5] = assay: Neurotoxicity in CF1 albino mouse assessed as ability to maintain equilibrium for 1 min on […] at 300 mg/kg, ip after 4 hrs by rotarod test; assay type: toxicity, organism-based; parameters: dose 300 mg/kg, route intraperitoneal; settings: in vivo
Mus musculus [6] = assay: Anticonvulsant activity in CF1 albino mouse assessed as inhibition of maximal electroshock-induced seizures at 300 mg/kg, ip after 4 hrs; assay type: functional, organism-based; parameters: dose 300 mg/kg
Mus musculus [7] = assay: Neurotoxicity in CF1 albino mouse assessed as ability to maintain equilibrium for 1 min on […] at 300 mg/kg, ip after 0.5 hrs by rotarod test; assay type: toxicity, organism-based; parameters: dose 300 mg/kg, route intraperitoneal; settings: in vivo
Mus musculus [8] = assay: Anticonvulsant activity in CF1 albino mouse assessed as protection against maximal electroshock-induced seizures at 30 mg/kg, po after 2 hrs; assay type: functional
Mus musculus [9] = assay: Anticonvulsant activity in CF1 albino mouse assessed as protection against maximal electroshock-induced seizures at 30 mg/kg, po after 4 hrs; assay type: functional
Mus musculus [10] = assay: Neurotoxicity in CF1 albino mouse assessed as motor impairment at 30 mg/kg, po after 0.5 hrs by rotarod test; assay type: toxicity, organism-based; parameters: dose 30 mg/kg, route oral; settings: in vivo
Mus musculus [11] = assay: Neurotoxicity in CF1 albino mouse assessed as motor impairment at 30 mg/kg, po after 2 hrs by rotarod test; assay type: toxicity, organism-based; parameters: dose 30 mg/kg, route oral; settings: in vivo
Mus musculus [12] = assay: Neurotoxicity in CF1 albino mouse assessed as motor impairment at 30 mg/kg, po after 4 hrs by rotarod test; assay type: toxicity, organism-based; parameters: dose 30 mg/kg, route oral; settings: in vivo
Mus musculus [13] = assay: Neurotoxicity in CF1 albino mouse assessed as motor impairment at 30 mg/kg, po after 0.25 hrs by rotarod test; assay type: toxicity, organism-based; parameters: dose 30 mg/kg, route oral; settings: in vivo
Mus musculus [14] = assay: Anticonvulsant activity in CF1 albino mouse assessed as protection against maximal electroshock-induced seizures at 30 mg/kg, po after 0.5 hrs; assay type: functional
Mus musculus [15] = assay: Neurotoxicity in CF1 albino mouse assessed as motor impairment at 30 mg/kg, po after 1 hr by rotarod test; assay type: toxicity, organism-based; parameters: dose 30 mg/kg, route oral; settings: in vivo
Mus musculus [16] = assay: Anticonvulsant activity in CF1 albino mouse assessed as protection against maximal electroshock-induced seizures at 30 mg/kg, po after 1 hr; assay type: functional
Mus musculus [17] = assay: Neurotoxicity in CF1 albino mouse assessed as death at 300 mg/kg, ip after 0.5 hrs by rotarod test; assay type: toxicity, organism-based; parameters: dose 300 mg/kg, route intraperitoneal; settings: in vivo
Rattus norvegicus [18] = assay: Anticonvulsant activity in po dosed rat assessed as inhibition of maximal electroshock-induced seizures; assay type: functional
Rattus norvegicus [19] = assay: Anticonvulsant activity in po dosed rat assessed as inhibition of subcutaneous pentylenetetrazole-induced seizures; assay type: functional
Rattus norvegicus [20] = species: Rattus norvegicus; assay: Protective index, ratio of TD50 for neurotoxicity in rat to ED50 for inhibition of maximal electroshock-induced seizures in rat; assay type: functional
Mus musculus [21] = assay: Anticonvulsant activity in CF1 albino mouse assessed as protection against maximal electroshock-induced seizures at 30 mg/kg, po after 0.25 hrs; assay type: functional
[22] = Neurotoxicity in po dosed rat assessed as ability to maintain equilibrium for 1 min on […] by rotarod test; assay type: toxicity, organism-based; settings: in vivo
Rattus norvegicus [23] = assay: Anticonvulsant activity against maximal electroshock-induced seizures in po dosed rat assessed as time to peak effect; assay type: functional
Mus musculus [24] = assay: Anticonvulsant activity in ip dosed CF1 albino mouse assessed as inhibition of maximal electroshock-induced seizures after 0.5 hrs; assay type: functional

## Cc1ccccc1C1CC(=O)N(CN2CCN(c3ccccc3)CC2)C1=O (stereo not given)
Mus musculus [1]
  Activity: 300 mg/kg
Mus musculus [2]
  Activity: inactive
Mus musculus [3]
  Activity: 300 mg/kg
Mus musculus [4]
  Activity: 100 mg/kg

## Cc1ccccc1C1CC(=O)N(CCN2CCN(c3ccccc3F)CC2)C1=O (stereo not given)
Mus musculus [1]
  Activity: 300 mg/kg
Mus musculus [5]
  Activity: Non-toxic
Mus musculus [2]
  Activity: inactive
Mus musculus [4]
  Activity: 300 mg/kg

## COc1ccccc1N1CCN(CCCN2C(=O)CC(c3ccccc3C(F)(F)F)C2=O)CC1 (stereo not given)
Mus musculus [6]
  Activity: inactive
Mus musculus [2]
  Activity: inactive
Mus musculus [3]
  Activity: 300 mg/kg
Mus musculus [4]
  Activity: 100 mg/kg

## Cc1ccccc1C1CC(=O)N(CN2CCN(c3cccc(Cl)c3)CC2)C1=O (stereo not given)
Mus musculus [7]
  Activity: Non-toxic
Mus musculus [5]
  Activity: Non-toxic
Mus musculus [6]
  Activity: inactive
Mus musculus [2]
  Activity: inactive

## O=C1CC(c2ccccc2C(F)(F)F)C(=O)N1CN1CCN(c2ccccc2F)CC1 (stereo not given)
Mus musculus [8]
  Activity: inactive
Mus musculus [9]
  Activity: 25%
Mus musculus [1]
  Activity: 30 mg/kg
Mus musculus [10]
  Activity: Non-toxic
Mus musculus [11]
  Activity: Non-toxic
Mus musculus [12]
  Activity: Non-toxic
Mus musculus [13]
  Activity: Non-toxic
Mus musculus [14]
  Activity: 25%
Mus musculus [2]
  Activity: inactive
Mus musculus [15]
  Activity: Non-toxic
Mus musculus [16]
  Activity: 25%
Mus musculus [3]
  Activity: 300 mg/kg
Mus musculus [4]
  Activity: 100 mg/kg

## Cc1ccccc1C1CC(=O)N(CN2CCN(c3ccccc3F)CC2)C1=O (stereo not given)
Mus musculus [5]
  Activity: Non-toxic
Mus musculus [6]
  Activity: inactive
Mus musculus [2]
  Activity: inactive
Mus musculus [4]
  Activity: 300 mg/kg

## COc1ccccc1N1CCN(CCN2C(=O)CC(c3ccccc3C)C2=O)CC1 (stereo not given)
Mus musculus [5]
  Activity: Non-toxic
Mus musculus [6]
  Activity: inactive
Mus musculus [2]
  Activity: inactive
Mus musculus [17]
  Activity: Toxic
Mus musculus [4]
  Activity: 300 mg/kg

## O=C1CC(c2ccccc2Cl)C(=O)N1CN1CCN(c2cccc(Cl)c2)CC1 (stereo not given)
Rattus norvegicus [18]
  ED50: 14.2 mg/kg

## O=C1CC(c2ccccc2C(F)(F)F)C(=O)N1CN1CCN(c2ccccc2)CC1 (stereo not given)
Mus musculus [8]
  Activity: 50%
Mus musculus [9]
  Activity: 75%
Rattus norvegicus [19]
  ED50: > 250 mg/kg
Mus musculus [1]
  Activity: 30 mg/kg
Mus musculus [10]
  Activity: Non-toxic
Mus musculus [11]
  Activity: Non-toxic
Mus musculus [12]
  Activity: Non-toxic
Rattus norvegicus [20]
  Ratio TD50/ED50: >24.1
Mus musculus [5]
  Activity: Non-toxic
Mus musculus [13]
  Activity: Non-toxic
Mus musculus [14]
  Activity: inactive
Mus musculus [21]
  Activity: 25%
Rattus norvegicus [18]
  ED50: 20.8 mg/kg
[22]
  TD50 at 1 min: > 500 mg/kg
Mus musculus [2]
  Activity: inactive
Mus musculus [15]
  Activity: Non-toxic
Mus musculus [16]
  Activity: 25%
Mus musculus [4]
  Activity: 300 mg/kg
Rattus norvegicus [23]
  Time: 8 h

## COc1ccccc1N1CCN(CCCN2C(=O)CC(c3ccccc3C)C2=O)CC1 (stereo not given)
Mus musculus [5]
  Activity: Non-toxic
Mus musculus [6]
  Activity: inactive
Mus musculus [2]
  Activity: inactive
Mus musculus [4]
  Activity: 100 mg/kg

## Cc1ccccc1C1CC(=O)N(CCN2CCN(c3cccc(C(F)(F)F)c3)CC2)C1=O (stereo not given)
Mus musculus [24]
  Activity: 300 mg/kg
Mus musculus [1]
  Activity: 300 mg/kg
Mus musculus [7]
  Activity: Non-toxic
Mus musculus [5]
  Activity: Non-toxic

## Cc1ccccc1C1CC(=O)N(CCCN2CCN(c3cccc(C(F)(F)F)c3)CC2)C1=O (stereo not given)
Mus musculus [8]
  Activity: inactive
Mus musculus [24]
  Activity: 100 mg/kg
Mus musculus [9]
  Activity: inactive
Mus musculus [1]
  Activity: 100 mg/kg
Mus musculus [10]
  Activity: Non-toxic
Mus musculus [11]
  Activity: 25%
Mus musculus [12]
  Activity: Non-toxic
Mus musculus [7]
  Activity: Non-toxic
Mus musculus [5]
  Activity: Non-toxic
Mus musculus [13]
  Activity: Non-toxic
Mus musculus [14]
  Activity: inactive
Mus musculus [21]
  Activity: inactive
Mus musculus [15]
  Activity: Non-toxic
Mus musculus [16]
  Activity: inactive
